Data reported in patent US4461907A, “Amino-substituted flavans useful as anti-viral agents” (priority 1978, dated 1984).
Like-named read-outs stand apart in the source and are kept apart here.

Legend:
rhinovirus serotype 1B = assay: plaque reduction test; type: cell-based; settings: Enterovirus
Source text: Plaque suppression is proportional to compound concentration.

rhinoviruses [1] = assay: activity in tests (novel compounds)
in vivo = settings: mouse, po
Description: Retro-orbital bleedings were performed at half, an hour, and 1 hour after administration of the dose, and hourly thereafter to 7 hours, and again at 24 hours. The plasma was harvested from these bleedings and was tested for antiviral activity using the plaque inhibition test described above. The total faeces of each mouse were collected after 24 hours and were macerated with a minimum of absolute alcohol, which liquid was then tested for antiviral activity by the plaque inhibition test. The gall bladders of the mice were removed and each was extracted with 10 μl of absolute alcohol, which extract was also tested by the plaque inhibition test.

viral hepatitis = settings: Lancet;2;1153 (1977); cited from earlier work
rhinoviruses [2] = assay: in vitro tests in culture
[3] = rhinovirus serotype 1B, plaque reduction test, read-out: ED50 (the source's name)

Structure (SMILES) | EC50 (rhinovirus serotype 1B; [3]) | further results
Clc1ccc(C2CCc3ccccc3O2)c(Cl)c1 (stereo not drawn) [2',4'-dichloro-, 2',4'-Dichloro-flavan] | 64 nM | –
Clc1cccc(Cl)c1C1CCc2ccccc2O1 (stereo not drawn) [2',6'-dichloro-, 2',6'-Dichloroflavan] | 48 nM | –
Clc1ccccc1C1CCc2ccccc2O1 (stereo not drawn) [2'-chloro-, 2'-chloroflavan] | 112 nM | –
Oc1ccccc1C1CCc2ccccc2O1 (stereo not drawn) [2'-hydroxyl-, 2'-hydroxyflavan] | 780 nM | –
Cc1ccccc1C1CCc2ccccc2O1 (stereo not drawn) [2'-methyl-, 2'-Methylflavan] | 15 nM | –
Cc1ccc2c(c1)CCC(c1ccc(Cl)c(Cl)c1)O2 (stereo not drawn) [3',4'-dichloro-6-methyl-, 3',4'-Dichloro-6-methylflavan] | 17 nM | activity in tests (rhinoviruses [1]): highest activity in tests
Clc1ccc(C2CCc3ccccc3O2)cc1Cl (stereo not drawn) [3',4'-dichloro-, 3',4'-Dichloro-flavan] | 40 nM | –
Clc1cccc(C2CCc3ccccc3O2)c1 (stereo not drawn) [3'-chloro-, 3'-chloroflavan] | 270 nM | –
COc1cccc(C2CCc3ccccc3O2)c1 (stereo not drawn) [3'-methoxyl-, 3'-methoxyflavan] | 125 nM | –
Cc1cccc(C2CCc3ccccc3O2)c1 (stereo not drawn) [3'-methyl-, 3'-methylflavan] | 290 nM | –
FC(F)(F)c1cccc(C2CCc3ccccc3O2)c1 (stereo not drawn) [3'-trifluoromethyl, 3'-trifluoromethyl-flavan] | 1400 nM | –
N#Cc1ccc(C2CCc3cc(C#N)ccc3O2)cc1 (stereo not drawn) [4',6-cyano, 4',6-dicyanoflavan] | > 10 nM | activity in tests (rhinoviruses [1]): highest activity in tests
Brc1ccc(C2CCc3cc(Br)ccc3O2)cc1 (stereo not drawn) [4',6-dibromo-, 4',6-dibromoflavan] | 8 nM | activity in tests (rhinoviruses [1]): highest activity in tests
Clc1ccc(C2CCc3cc(Cl)ccc3O2)cc1 (stereo not drawn) [4',6-dichloro-, 4',6-Dichloroflavan] | – | concentration at 1 h (in vivo; 30 mg/kg): 2 to 4 µM; concentration at 1 h (in vivo; 100 mg/kg): 10 µM
Fc1ccc(C2CCc3cc(F)ccc3O2)cc1 (stereo not drawn) [4',6-difluoro-, 4'-6-difluoro] | 68 nM | –
Ic1ccc(C2CCc3cc(I)ccc3O2)cc1 (stereo not drawn) [4',6-diiodo-, 4',6-diiodo] | 43 nM | –
Cc1ccc(C2CCc3cc(C)ccc3O2)cc1 (stereo not drawn) [4',6-dimethyl-, 4',6-Dimethylflavan] | 42 nM | –
Clc1ccc(C2CCc3ccc(Cl)cc3O2)cc1 (stereo not drawn) [4',7-dichloro-, 4',7-Dichloroflavan] | 48 nM | –
CN(C)c1ccc(C2CCc3ccccc3O2)cc1 (stereo not drawn) [4'-N,N--dimethylamino-, 4'-(N,N-dimethylamino)flavan] | 265 nM | –

Structure (SMILES) | EC50 (rhinovirus serotype 1B; [3]) | further results
CC(=O)Oc1ccc(C2CCc3ccccc3O2)cc1 (stereo not drawn) [4'-acetoxyl-] | 67 nM | –
Nc1ccc(C2CCc3ccccc3O2)cc1 (stereo not drawn) [4'-amino-, 4'-aminoflavan] | 50 nM | –
Clc1ccc2c(c1)CCC(c1ccc(Br)cc1)O2 (stereo not drawn) [4'-bromo-6-chloro, 4'-bromo-6-chloro-flavan] | 21 nM | –
Fc1ccc2c(c1)CCC(c1ccc(Br)cc1)O2 (stereo not drawn) [4'-bromo-6-fluoro-, 6-fluoro-4'-bromoflavan] | 13 nM | activity in tests (rhinoviruses [1]): highest activity in tests
Brc1ccc(C2CCc3cc(I)ccc3O2)cc1 (stereo not drawn) [4'-bromo-6-iodo] | 76 nM | –
Brc1ccc(C2CCc3ccccc3O2)cc1 (stereo not drawn) [4'-bromo-, 4'-Bromoflavan] | 36 nM | –
N#Cc1ccc2c(c1)CCC(c1ccc(Cl)cc1)O2 (stereo not drawn) [4'-chloro-6-cyano, 6-cyano-4'-chloroflavan] | 6 nM | activity in tests (rhinoviruses [1]): highest activity in tests
CCc1ccc2c(c1)CCC(c1ccc(Cl)cc1)O2 (stereo not drawn) [4'-chloro-6-ethyl-, 4'-chloro-6-ethyl-flavan] | 52 nM | –
Fc1ccc2c(c1)CCC(c1ccc(Cl)cc1)O2 (stereo not drawn) [4'-chloro-6-fluoro-, 6-fluoro-4'-chloroflavan] | 15 nM | activity in tests (rhinoviruses [1]): highest activity in tests
Clc1ccc(C2CCc3cc(I)ccc3O2)cc1 (stereo not drawn) [4'-chloro-6-iodo-, 6-iodo-4'-chloroflavan] | 15 nM | activity in tests (rhinoviruses [1]): highest activity in tests
Cc1ccc2c(c1)OC(c1ccc(Cl)cc1)CC2 (stereo not drawn) [4'-chloro-7-methyl-, 4'-chloro-7-methyl-flavan] | 15.5 nM | activity in tests (rhinoviruses [1]): highest activity in tests
Clc1ccc(C2CCc3ccccc3O2)cc1 (stereo not drawn) [4'-chloro-, 4'-chloroflavan] | – | EC50 (rhinovirus serotype 1B; read-out: ED50): 40 nM
Fc1ccc(C2CCc3cc(I)ccc3O2)cc1 (stereo not drawn) [4'-fluoro-6-iodo, 6-iodo-4'-fluoro] | 28 nM | –
Fc1ccc(C2CCc3ccccc3O2)cc1 (stereo not drawn) [4'-fluoro-, 4'-flouroflavan] | 17.5 nM | activity in tests (rhinoviruses [1]): highest activity in tests
Oc1ccc(C2CCc3ccccc3O2)cc1 (stereo not drawn) [4'-hydroxy-, 4'-hydroxyflavan] | 60 nM | –
COc1ccc(C2CCc3cc(Cl)ccc3O2)cc1 (stereo not drawn) [4'-methoxyl-6-chloro-, 6-Chloro-4'-methoxy-flavan] | 13 nM | activity in tests (rhinoviruses [1]): highest activity in tests
COc1ccc(C2CCc3cc(C)ccc3O2)cc1 (stereo not drawn) [4'-methoxyl-6-methyl-, 4'-Methoxy-6-methyl-flavan] | 100 nM | –
COc1ccc(C2CCc3ccccc3O2)cc1 (stereo not drawn) [4'-methoxyl-, 4'-methoxyflavan] | 70 nM | –
Cc1ccc(C2CCc3cc(Cl)ccc3O2)cc1 (stereo not drawn) [4'-methyl-6-chloro-, 6-Chloro-4'-methyl-flavan] | 2.3 nM | activity in tests (rhinoviruses [1]): highest activity in tests

Structure (SMILES) | EC50 (rhinovirus serotype 1B; [3]) | further results
Cc1ccc(C2CCc3ccc(Cl)cc3O2)cc1 (stereo not drawn) [4'-methyl-7-chloro-, 7-Chloro-4'-methyl-flavan] | 83 nM | –
Cc1ccc(C2CCc3ccccc3O2)cc1 (stereo not drawn) [4'-methyl-, 4'-methylflavan] | 12.5 nM | activity in tests (rhinoviruses [1]): highest activity in tests
Clc1ccc(C2CCc3cc(Br)ccc3O2)cc1 (stereo not drawn) [6-bromo-4'-chloro-, 6-bromo-4'-chloro-flavan] | 5 nM | –
Fc1ccc(C2CCc3cc(Br)ccc3O2)cc1 (stereo not drawn) [6-bromo-4'-fluoro] | 29 nM | –
Brc1ccc2c(c1)CCC(c1ccc(I)cc1)O2 (stereo not drawn) [6-bromo-4'-iodo-, 6-bromo-4'-iodo] | 21 nM | –
Cc1ccc(C2CCc3cc(Br)ccc3O2)cc1 (stereo not drawn) [6-bromo-4'-methyl-, 6-bromo-4'-methylflavan] | 18 nM | –
Fc1ccc(C2CCc3cc(Cl)ccc3O2)cc1 (stereo not drawn) [6-chloro-4'-fluoro, 6-chloro-4'-fluoro-flavan] | 16 nM | activity in tests (rhinoviruses [1]): highest activity in tests
CC(C)c1ccc(C2CCc3cc(Cl)ccc3O2)cc1 (stereo not drawn) [6-chloro-4-(1-methylethyl), 6-chloro 4'-isopropylflavan] | 36 nM | –
OC1Cc2ccccc2OC1c1ccccc1 (stereo not drawn) [-3-hydroxy flavan] | – | effect against viral hepatitis (viral hepatitis): without success
Brc1ccc2c(c1)CCC(c1ccccc1)O2 (stereo not drawn) [Example 6-bromo-, 6-bromo flavan] | 19 nM | –
Clc1ccc2c(c1)CCC(c1ccccc1)O2 (stereo not drawn) [Example 6-chloro-, 6-chloroflavan] | 50 nM | –
N#Cc1ccc2c(c1)CCC(c1ccccc1)O2 (stereo not drawn) [Example 6-cyano-, 6-cyano] | 38 nM | –
Fc1ccc2c(c1)CCC(c1ccccc1)O2 (stereo not drawn) [Example 6-fluoro-, 6-fluoro flavan] | 20 nM | –
Ic1ccc2c(c1)CCC(c1ccccc1)O2 (stereo not drawn) [Example 6-iodo-, 6-iodo] | 58 nM | –
COc1ccc2c(c1)CCC(c1ccccc1)O2 (stereo not drawn) [Example 6-methoxyl-, 6-methoxyflavan] | 12.5 nM | activity in tests (rhinoviruses [1]): highest activity in tests
Cc1ccc2c(c1)CCC(c1ccccc1)O2 (stereo not drawn) [Example 6-methyl-, 6-methylflavan] | 150 nM | –
Clc1ccc2c(c1)OC(c1ccccc1)CC2 (stereo not drawn) [Example 7-chloro-, 7-Chloroflavan] | 70 nM | –
c1ccc(C2CCc3ccccc3O2)cc1 (stereo not drawn) [flavan, Flavan] | 46 nM | activity against rhinoviruses (rhinoviruses [2]): quite good activity against rhinoviruses
